Experimental data from ChEMBL document CHEMBL4699561, “Cytotoxic Germacranolides from the Whole Plant of Carpesium minus” (J Nat Prod, 2020).

Experiments:
A549 = test: Cytotoxicity against human A549 cells assessed as reduction in cell viability by MTT assay; format: functional, cell-based
HCT-116 [1] = test: Cytotoxicity against human HCT-116 cells assessed as reduction in cell viability by MTT assay; format: functional, cell-based
MDA-MB-231 = test: Cytotoxicity against human MDA-MB-231 cells assessed as reduction in cell viability by MTT assay; format: functional, cell-based
HCT-116 [2] = test: Induction of apoptosis in human HCT-116 cells assessed as apoptotic cells after 24 hrs by Annexin V-FITC/propidium iodide staining based flow cytometric analysis; format: functional, cell-based; conditions: dose microM 4-16, time 24.0 hrs
HCT-116 [3] = test: Induction of apoptosis in human HCT-116 cells assessed as necrotic cells at 4 uM after 24 hrs by Annexin V-FITC/propidium iodide staining based flow cytometric analysis (reference value: 0.4%); format: functional
HCT-116 [4] = test: Induction of apoptosis in human HCT-116 cells assessed as increase in cleaved-PARP protein expression after 24 hrs by Western blot analysis; format: functional, cell-based; conditions: dose microM 4-16, time 24.0 hrs
HCT-116 [5] = test: Induction of apoptosis in human HCT-116 cells assessed as early apoptotic cells at 4 uM after 24 hrs by Annexin V-FITC/propidium iodide staining based flow cytometric analysis (reference value: 5.3%); format: functional
HCT-116 [6] = test: Induction of apoptosis in human HCT-116 cells assessed as viable cells at 4 uM after 24 hrs by Annexin V-FITC/propidium iodide staining based flow cytometric analysis (reference value: 87.8%); format: functional; conditions: read-out: Activity
HCT-116 [7] = test: Induction of apoptosis in human HCT-116 cells assessed as necrotic cells at 16 uM after 24 hrs by Annexin V-FITC/propidium iodide staining based flow cytometric analysis (reference value: 0.4%); format: functional
HCT-116 [8] = test: Induction of apoptosis in human HCT-116 cells assessed as increase in cleaved-caspace-7 protein expression after 24 hrs by Western blot analysis; format: functional, cell-based; conditions: dose microM 4-16, time 24.0 hrs
HCT-116 [9] = test: Induction of apoptosis in human HCT-116 cells assessed as viable cells at 16 uM after 24 hrs by Annexin V-FITC/propidium iodide staining based flow cytometric analysis (reference value: 87.8%); format: functional; conditions: read-out: Activity
HCT-116 [10] = test: Induction of apoptosis in human HCT-116 cells assessed as necrotic cells at 8 uM after 24 hrs by Annexin V-FITC/propidium iodide staining based flow cytometric analysis (reference value: 0.4%); format: functional
HCT-116 [11] = test: Induction of apoptosis in human HCT-116 cells assessed as early apoptotic cells at 16 uM after 24 hrs by Annexin V-FITC/propidium iodide staining based flow cytometric analysis (reference value: 5.3%); format: functional
HCT-116 [12] = test: Induction of apoptosis in human HCT-116 cells assessed as increase in cleaved-caspace-3 protein expression after 24 hrs by Western blot analysis; format: functional, cell-based; conditions: dose microM 4-16, time 24.0 hrs
HCT-116 [13] = test: Induction of apoptosis in human HCT-116 cells assessed as late apoptotic cells at 16 uM after 24 hrs by Annexin V-FITC/propidium iodide staining based flow cytometric analysis (reference value: 6.5%); format: functional
HCT-116 [14] = test: Induction of apoptosis in human HCT-116 cells assessed as late apoptotic cells at 4 uM after 24 hrs by Annexin V-FITC/propidium iodide staining based flow cytometric analysis (reference value: 6.5%); format: functional
HCT-116 [15] = test: Induction of apoptosis in human HCT-116 cells assessed as viable cells at 8 uM after 24 hrs by Annexin V-FITC/propidium iodide staining based flow cytometric analysis (reference value: 87.8%); format: functional; conditions: read-out: Activity
HCT-116 [16] = test: Induction of apoptosis in human HCT-116 cells assessed as early apoptotic cells at 8 uM after 24 hrs by Annexin V-FITC/propidium iodide staining based flow cytometric analysis (reference value: 5.3%); format: functional
HCT-116 [17] = test: Induction of apoptosis in human HCT-116 cells assessed as late apoptotic cells at 8 uM after 24 hrs by Annexin V-FITC/propidium iodide staining based flow cytometric analysis (reference value: 6.5%); format: functional

SMILES | IC50 (A549) [µM] | IC50 (HCT-116 [1]) [µM] | IC50 (MDA-MB-231) [µM] | other results
C=C1C(=O)O[C@@H]2[C@@H](OC(=O)CC(C)C)[C@@](C)(O)C[C@H]3C[C@@H](C)[C@@](O)(C[C@@H]12)O3 | 24.5 | 17.2 | 27.9 | –
C=C1C(=O)O[C@@H]2[C@@H](OC(=O)CC(C)C)[C@@](C)(O)CCC[C@@H](C)C(=O)C[C@@H]12 | 8.4 | 3.7 | 6.1 | Activity (HCT-116 [2]): Dose-dependent effect; Activity (HCT-116 [3]): 0.4%; Activity (HCT-116 [4]): Dose-dependent effect; Activity (HCT-116 [5]): 5.2%; viability at 4 µM (HCT-116 [6]): 87.1%; Activity (HCT-116 [7]): 0.6%; Activity (HCT-116 [8]): Dose-dependent effect; viability at 16 µM (HCT-116 [9]): 73.9%; Activity (HCT-116 [10]): 0.6%; Activity (HCT-116 [11]): 10.5%; Activity (HCT-116 [12]): Dose-dependent effect; Activity (HCT-116 [13]): 15%; Activity (HCT-116 [14]): 7.3%; viability at 8 µM (HCT-116 [15]): 83.8%; Activity (HCT-116 [16]): 7.3%; Activity (HCT-116 [17]): 8.3%
C=C1C(=O)O[C@@H]2[C@@H](OC(=O)C(C)C)[C@@](C)(O)C[C@H]3C[C@@H](C)[C@@](O)(C[C@@H]12)O3 | > 50 | 20.2 | > 50 | –
C=C1C(=O)O[C@@H]2[C@@H](OC(=O)[C@H](C)CC)[C@@](C)(O)CCC[C@@H](C)C(=O)C[C@@H]12 | 24.7 | 5.3 | 10.6 | –
C=C1C(=O)O[C@@H]2[C@@H](OC(=O)/C(C)=C\C)[C@@](C)(O)C[C@H]3C[C@@H](C)[C@@](O)(C[C@@H]12)O3 | 17.3 | 17.8 | 23.4 | –
C=C1C(=O)O[C@@H]2[C@@H](OC(=O)C(C)C)[C@@](C)(O)CCC[C@@H](C)C(=O)C[C@@H]12 | 26.6 | 8.5 | 11.6 | –
C=C1C(=O)O[C@@H]2[C@@H](OC(=O)/C(C)=C\C)[C@@](C)(O)CCC[C@@H](C)C(=O)C[C@@H]12 | 14.1 | 3.2 | 4.7 | –
C=C1C(=O)O[C@@H]2[C@@H](OC(=O)[C@@H](C)CC)[C@@](C)(O)CCC[C@@H](C)C(=O)C[C@@H]12 | 31.9 | 6.7 | 14.6 | –
C=C1C(=O)O[C@@H]2[C@@H](OC(=O)[C@H](C)CC)[C@@](C)(O)C[C@H]3C[C@@H](C)[C@@](O)(C[C@@H]12)O3 | 37.6 | 21.4 | 48.9 | –
C=C1C(=O)O[C@@H]2[C@@H](OC(=O)[C@@H](C)CC)[C@@](C)(O)C[C@H]3C[C@@H](C)[C@@](O)(C[C@@H]12)O3 | 24.3 | 14 | 23.7 | –
